The values that follow come from PMC8197855, “Peptide/β-Peptoid Hybrids with Activity against Vancomycin-Resistant Enterococci: Influence of Hydrophobicity and Structural Features on Antibacterial and Hemolytic Properties” (International Journal of Molecular Sciences, 2021).

≈ marks a conversion by molar mass, not a printed value.

One data set is described as follows: Hemolytic activity. The data set is classed as cell-based, human. The note with it: 37 °C, 1% red blood cell suspension. Here is the method:
A suspension of hRBCs (Single-donor human red blood cells—washed; catalogue No. IPLA-W3 from Innovative researchTM) was washed three times with PBS buffer and centrifuged for 5 min at 2500 rpm. A two-fold serial dilution of compounds in PBS buffer was prepared. Plates (conical-bottomed 96-well plates) with 3 replicate wells per dilution, containing 1% red blood cell suspension, were prepared and dosed with the test compound to achieve a final concentration of 400 μg/mL in a total volume of 100 μL. The plates were incubated (37 °C) for 60 min with mild agitation, and then the cells were pelleted by centrifugation at 1500 rpm for 5 min. Then, the supernatants (50 μL) were transferred to a fresh 96-well plate, and then the concentration of hemoglobin was detected by measuring the OD at 405 nm. The OD of cells incubated with 1% SDS achieved 100% hemolysis, while the OD of cells incubated with PBS buffer achieved 0% hemolysis. The concentration tested was 400 μg/mL (only average values are stated in Table 3). The percent hemolysis was calculated by using the formula:Hemolysis(%) = 100 × [(Asample − Aneg.control)/(Apos. control − Aneg.control)]

The subject of a further data set is E. faecalis 39002. The data set can be described thus: microbe, parasite or virus in culture. The data set is classed as cell-based, Enterococcus faecalis. The note with it: 39002, 24 h. Here is the method:
(§1) Overnight cultures of the enterococcal isolates were diluted in physiological saline (0.9% NaCl) to reach a turbidity of 0.5 McFarland units (Sensititre® nephelometer and the Sensititre® McFarland Standard). Bacterial suspensions were adjusted to 5 × 10^5 CFU/mL in MHB II or BHI broth containing two-fold dilutions of peptidomimetics or conventional antibiotics in a final volume of 100 µL. The plates were incubated for 24 h at 37 °C without shaking. […] All experiments were performed in three biological replicates.

The next data set has as its system E. faecalis 38262. Briefly: microbe, parasite or virus in culture. The data set is classed as cell-based, Enterococcus faecalis. To be noted: 38262, 24 h. How it is done:
as §1

In a further data set the test system is E. faecium 2961. Briefly: microbe, parasite or virus in culture. The data set is classed as cell-based, Enterococcus faecium. The note with it: 2961, 24 h. Here is the method: as §1
The test system of the next data set is E. faecium 1798. Briefly: microbe, parasite or virus in culture. The data set is classed as cell-based, Enterococcus faecium. To be noted: 1798, 24 h. How it is done: as §1
A further data set relates to E. faecium 3978. The data set can be described thus: microbe, parasite or virus in culture. The data set is classed as cell-based, Enterococcus faecium. The note with it: 3978, 24 h. How it is done:
as §1

The next data set concerns E. faecium D344R. The data set can be described thus: microbe, parasite or virus in culture. The note with it: E. faecium D344R, human clinical isolate; 24 h. The data set is classed as cell-based, Enterococcus faecium. How it is done: as §1
A further data set relates to E. faecium ATCC 19434. Briefly: microbe, parasite or virus in culture. The data set is classed as cell-based, Enterococcus faecium. To be noted: ATCC 19434, 24 h. How it is done:
(§2) Overnight cultures of the enterococcal isolates were diluted in physiological saline (0.9% NaCl) to reach a turbidity of 0.5 McFarland units (Sensititre® nephelometer and the Sensititre® McFarland Standard). Bacterial suspensions were adjusted to 5 × 10^5 CFU/mL in MHB II or BHI broth containing two-fold dilutions of peptidomimetics or conventional antibiotics in a final volume of 100 µL. The plates were incubated for 24 h at 37 °C without shaking. […] All experiments were performed in three biological replicates. […]

Data set [1] concerns HepG2 cell line ATCC HB-8065. Briefly: Effect on HepG2 cell viability (MTT assay). The data set is classed as cell-based, human. To be noted: 48 h. Here is the method:
The effect of peptidomimetics on mammalian cell viability was determined on the HepG2 cell line ATCC HB-8065. In brief, HepG2 cells were seeded into flat-bottom 96-well plates at a concentration of 5000 cells per well. The cells were incubated for 24 h in a humidified incubator (5% CO2, 37 °C). Subsequently, the medium was removed, and the cells were incubated for 48 h in a humidified incubator (5% CO2, 37 °C) with peptidomimetics in serial dilutions. An MTT assay was then performed; in brief, after incubation with the test compounds, the culture medium was removed and fresh medium with 0.2 mg/mL MTT was then added into each well. After incubation (3 h, 37 °C, 5% CO2), the medium with MTT was removed, and 200 μL dimethyl sulfoxide was added at once to each sample. The absorbance of MTT was measured using the spectrophotometer TECAN Infinite M1000 at 540 nm. The relative viability was calculated by using the formula:ODtreated cells × 100/ODcontrol cells
The IC50 values were calculated using the program Graph Pad Prism 5.0. For all compounds, the test range was 10–1280 μg/mL.

The test system of the next data set is E. faecalis ATCC 29212. The data set can be described thus: microbe, parasite or virus in culture. The note with it: ATCC 29212, 24 h. The data set is classed as cell-based, Enterococcus faecalis. How it is done: as §2

Consider `NCCCC[C@H](NC(=O)CCN(Cc1cc(F)c(F)c(F)c1)C(=O)[C@H](CCCCN)NC(=O)CCN(Cc1cc(F)c(F)c(F)c1)C(=O)[C@H](CCCCN)NC(=O)CCN(Cc1cc(F)c(F)c(F)c1)C(=O)[C@H](CCCCN)NC(=O)CCN(Cc1cc(F)c(F)c(F)c1)C(=O)[C@H](CCCCN)NC(=O)CCN(Cc1cc(F)c(F)c(F)c1)C(=O)[C@@H](N)CCCCN)C(=O)N(CCC(N)=O)Cc1cc(F)c(F)c(F)c1` [Compound 8, H-[Lys-βNPhe(F3)]6-NH2], for which the hemolysis at 60 min, 400 µg/mL in the data set “Hemolytic activity” (human, human red blood cells (washed, 1% suspension)) was > 20%. The Minimum inhibitory concentration in the data set on E. faecalis 39002 was 2 µg/mL (≈ 0.963 µM); with E. faecalis 38262 it was 8 to 16 µg/mL; with E. faecium 2961, 2 µg/mL (≈ 0.963 µM); in the data set with E. faecium 1798 it was 2 to 4 µg/mL; with E. faecium 3978, 2 µg/mL (≈ 0.963 µM); in the data set on E. faecium D344R it was 2 µg/mL (≈ 0.963 µM). Moreover, the Minimum inhibitory concentration with E. faecium ATCC 19434 and with E. faecalis ATCC 29212 was 2 to 4 µg/mL each time. The “HepG2 IC50” value in data set [1] is listed as 27 µg/mL.
Turning to `NCCCC[C@H](NC(=O)CCN(CC1CCCCC1)C(=O)[C@H](CCCCN)NC(=O)CCN(CC1CCCCC1)C(=O)[C@H](CCCCN)NC(=O)CCN(CC1CCCCC1)C(=O)[C@H](CCCCN)NC(=O)CCN(CC1CCCCC1)C(=O)[C@H](CCCCN)NC(=O)CCN(CC1CCCCC1)C(=O)[C@H](CCCCN)NC(=O)CCN(CC1CCCCC1)C(=O)[C@H](CCCCN)NC(=O)CCN(CC1CCCCC1)C(=O)[C@@H](N)CCCCN)C(=O)N(CCC(N)=O)CC1CCCCC1` [Compound 9, H-[Lys-βNCha]8-NH2], in “Hemolytic activity” (400 µg/mL, 60 min), the hemolysis was > 20%. In addition, the Minimum inhibitory concentration in the data set on E. faecalis 39002 is 4 µg/mL (≈ 1.68 µM); in the data set with E. faecalis 38262 it was 8 µg/mL (≈ 3.36 µM); in the data set with E. faecium 2961, 2 to 4 µg/mL; with E. faecium 1798 it was 2 to 4 µg/mL; in the data set on E. faecium 3978, 2 to 4 µg/mL; in the data set on E. faecium ATCC 19434, 2 to 4 µg/mL. Further, in the data set with E. faecalis ATCC 29212, the Minimum inhibitory concentration lay within 2 to 4 µg/mL.
As to `CCCCCCCCCCCC(=O)N[C@@H](CCCCN)C(=O)N(CCC(=O)N[C@@H](CCCCN)C(=O)N(CCC(=O)N[C@@H](CCCCN)C(=O)N(CCC(=O)N[C@@H](CCCCN)C(=O)N(CCC(=O)N[C@@H](CCCCN)C(=O)N(CCC(=O)N[C@@H](CCCCN)C(=O)N(CCC(N)=O)Cc1ccccc1)Cc1ccccc1)Cc1ccccc1)Cc1ccccc1)Cc1ccccc1)Cc1ccccc1` [Compound 11, Lau-[Lys-βNPhe]6-NH2], the Minimum inhibitory concentration was in the range of 4 to 8 µg/mL in the data set on E. faecalis 39002; 4 to 8 µg/mL with E. faecalis 38262; 2 to 4 µg/mL in the data set with E. faecium 2961; 2 to 4 µg/mL in the data set on E. faecium 1798; 2 to 4 µg/mL with E. faecium 3978; 2 to 4 µg/mL in the data set with E. faecium D344R. The Minimum inhibitory concentration with E. faecium ATCC 19434 and in the data set with E. faecalis ATCC 29212 was 4 µg/mL (≈ 2.07 µM) each time. For the same compound, the “HepG2 IC50” value in [1] worked out at 22 µg/mL.
